For this experiment, the target named is Acetylcholinesterase (Electrophorus electricus, UniProt O42275). Briefly: Inhibition of Electrophorus electricus AChE by Ellman's method.

IC50 data for 14 compounds are collected here from ChEMBL document CHEMBL1154199, “Design, synthesis and evaluation of novel 5,6-dimethoxy-1-oxo-2,3-dihydro-1H-2-indenyl-3,4-substituted phenyl methanone analogues” (Bioorg Med Chem Lett, 2009).

Acetylcholinesterase, sequence (O42275 whole entry): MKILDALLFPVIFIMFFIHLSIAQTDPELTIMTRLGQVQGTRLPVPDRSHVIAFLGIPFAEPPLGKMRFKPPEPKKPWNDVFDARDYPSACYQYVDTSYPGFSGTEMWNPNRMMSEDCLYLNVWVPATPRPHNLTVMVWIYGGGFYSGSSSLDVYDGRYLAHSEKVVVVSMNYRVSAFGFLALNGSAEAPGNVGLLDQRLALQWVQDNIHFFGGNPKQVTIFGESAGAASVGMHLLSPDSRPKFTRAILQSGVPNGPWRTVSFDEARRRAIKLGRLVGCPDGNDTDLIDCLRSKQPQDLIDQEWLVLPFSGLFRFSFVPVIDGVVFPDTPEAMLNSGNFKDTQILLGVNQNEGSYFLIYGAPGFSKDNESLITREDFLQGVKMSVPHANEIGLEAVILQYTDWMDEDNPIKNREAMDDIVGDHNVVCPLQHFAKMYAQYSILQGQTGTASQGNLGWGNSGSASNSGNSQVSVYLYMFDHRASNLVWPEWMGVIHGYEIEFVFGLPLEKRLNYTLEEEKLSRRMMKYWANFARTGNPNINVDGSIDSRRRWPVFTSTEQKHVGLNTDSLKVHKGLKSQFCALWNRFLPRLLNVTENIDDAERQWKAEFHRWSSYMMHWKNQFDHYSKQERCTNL

Turning to `COc1cc2c(cc1OC)C(=O)C(C(=O)c1cccc([N+](=O)[O-])c1)C2` (centres undefined), the IC50 result was “Not Active”.
On to `COc1cc2c(cc1OC)C(=O)C(C(=O)c1ccc(Br)cc1)C2` (centres undefined), for which the IC50 (read-out: IC50) is 45 µM.
Same read-out and setting: the result for `COc1cc2c(cc1OC)C(=O)C(C(=O)c1ccccc1Cl)C2` (centres undefined) reads 64 µM.
Take `COc1cc2c(cc1OC)C(=O)C(C(=O)c1c(Cl)cccc1Cl)C2` (centres undefined): the IC50 (read-out: IC50) was 102 µM.
On the same count and under the same terms, the result for `COc1cc2c(cc1OC)C(=O)C(C(=O)c1ccc(N(C)C)cc1)C2` (centres undefined) reads 29.4 µM; that for `COc1cc2c(cc1OC)C(=O)C(C(=O)c1cccs1)C2` (centres undefined), 8.6 µM; that for `COc1cc2c(cc1OC)C(=O)C(C(=O)c1cc(OC)c(OC)c(OC)c1)C2` (centres undefined), 2.7 µM.
On to `COc1ccc(C(=O)C2Cc3cc(OC)c(OC)cc3C2=O)cc1` (centres undefined), for which the 50% inhibitory concentration (IC50) (read-out: IC50) was determined as 6.2 µM.
For the compound `COc1cc2c(cc1OC)C(=O)C(C(=O)c1ccc(C#N)cc1)C2` (centres undefined), the half-maximal inhibitory concentration (IC50) (read-out: IC50) stood at 53 µM.
As to `COc1ccc(C(=O)C2Cc3cc(OC)c(OC)cc3C2=O)cc1OC` (centres undefined), the IC50 (read-out: IC50) is 4.3 µM.
The same measure, in the same setting: next, `COc1cc2c(cc1OC)C(=O)C(C(=O)c1ccco1)C2` (centres undefined): 9.4 µM; `COc1cc2c(cc1OC)C(=O)C(C(=O)c1ccc(Cl)cc1)C2` (centres undefined): 41.2 µM; `COc1cc2c(cc1OC)C(=O)C(C(=O)c1ccccc1)C2` (centres undefined): 21 µM.
The same measure, in the same setting: next, `COc1cc2c(cc1OC)C(=O)C(C(=O)c1ccc(F)cc1)C2` (centres undefined): 42 µM.
